# From patent US20230078811A1, “USE OF DISTILLABLE VOLATILE SALT FOR THE PRETREATMENT OF BIOMASS” (The Regents of the University of California, priority 2020, published 2023)
# Assay: Distillation efficiency: pretreating solvent left in the solids after pretreatment and distillation
# Type: physicochemical
# Settings: pretreat 100° C. 1 hour; distill 100° C. 1 hour, full vacuum; 40% solid loading; FIG. 4
# Protocol: Distillation efficiency is measured using the following procedure: pretreat at 100° C. for 1 hour; distill at 100° C. for 1 hours in full vacuum, 40% solid loading (SL) with ethanolamine, enzyme saccharification (5%, 10%, 20% SL), and 10 mg/g biomass of CTEC/HTEC 9/1 cellulase. Distillation efficiency can be measured by determining the concentration of pretreating solvent in the solids after pretreatment.
structure (smiles),measurement,value
NCCO [ethanolamine],removal of the solvent by distillation,about 98.7%
